The target of the test is T1, Androgen receptor (Rattus norvegicus, UniProt P15207).
T1 construct: Prostate cytosol of the castrated rat; from tissue; host or cells: prostate cytosol of castrated rat
T1 sequence (P15207 1-902): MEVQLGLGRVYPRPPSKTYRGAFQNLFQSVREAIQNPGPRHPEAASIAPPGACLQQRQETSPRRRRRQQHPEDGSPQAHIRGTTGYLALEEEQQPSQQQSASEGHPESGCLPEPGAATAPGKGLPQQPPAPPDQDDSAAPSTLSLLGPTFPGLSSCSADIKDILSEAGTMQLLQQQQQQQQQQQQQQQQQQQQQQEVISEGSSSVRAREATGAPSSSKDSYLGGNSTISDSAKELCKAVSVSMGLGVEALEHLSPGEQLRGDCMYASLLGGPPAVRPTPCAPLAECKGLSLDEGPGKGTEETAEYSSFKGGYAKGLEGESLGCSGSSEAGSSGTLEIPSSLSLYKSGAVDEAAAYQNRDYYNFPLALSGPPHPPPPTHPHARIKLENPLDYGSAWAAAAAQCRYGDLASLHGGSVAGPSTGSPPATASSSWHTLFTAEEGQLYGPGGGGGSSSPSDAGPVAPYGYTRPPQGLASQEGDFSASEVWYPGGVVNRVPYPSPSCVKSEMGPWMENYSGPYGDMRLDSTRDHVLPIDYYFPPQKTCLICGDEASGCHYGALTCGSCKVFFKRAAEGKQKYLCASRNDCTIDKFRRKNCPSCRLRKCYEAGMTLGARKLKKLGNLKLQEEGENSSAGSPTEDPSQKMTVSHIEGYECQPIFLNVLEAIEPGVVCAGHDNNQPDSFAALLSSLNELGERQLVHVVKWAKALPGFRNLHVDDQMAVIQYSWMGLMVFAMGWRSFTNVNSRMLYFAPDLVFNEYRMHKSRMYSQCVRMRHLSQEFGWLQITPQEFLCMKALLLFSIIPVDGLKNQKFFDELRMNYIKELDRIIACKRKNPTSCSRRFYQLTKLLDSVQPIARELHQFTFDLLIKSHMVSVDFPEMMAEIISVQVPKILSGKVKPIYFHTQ
The experiment in a line: Receptor binding affinity, androgen receptor (competitive binding, 3H-metribolone). Conditions: prostate cytosol of castrated rat; for AR relative molar binding affinity (RBA) a) against RU 1881: reference RU 1881 (metribolone); for AR relative molar binding affinity (RBA) b) against dihydrotestosterone (DHT): reference dihydrotestosterone. As to the method:
The receptor binding affinity was determined by competitive binding of a specifically binding ^3H-labeled hormone (tracer) and the compound to be tested on receptors in the cytosol from animal target organs. In this case, receptor saturation and reaction equilibrium were sought.
The tracers and increasing concentrations of the compound to be tested (competitor) were co-incubated with the receptor-containing cytosol fraction at 0-4° C. over 18 hours. After separation of the unbonded tracer with carbon-dextran suspension, the receptor-bonded tracer portion was measured for each concentration, and the IC50 was determined from the concentration sequence. As a quotient of the IC50 values of the reference substance and the compound to be tested (×100%), the relative molar binding affinity (RBA) was calculated (RBA of the reference substance=100%).
Prostate cytosol of the castrated rat; prostates stored at −30° C.; buffer: TED with 10% glycerol as well as 2 μmol of triamcinolone acetonide. Tracer: ^3H-metribolone 4 nmol; reference substances: metribolone (RU 1881) or 5α-dihydrotestosterone.

Consider `C[C@]12C[C@H](c3ccc(/C=N/O)cc3)C3=C4CCC(=O)C=C4CC[C@H]3[C@@H]1CC[C@@H]2O` [Example 1, 4-(17β-Hydroxy-3-oxoestra-4,9-dien-11β-yl)benzaldehyde-1(E)-oxime], for which the “AR relative molar binding affinity (RBA) a) against RU 1881” value is “a) 17%” and the “AR relative molar binding affinity (RBA) b) against dihydrotestosterone (DHT)” value was “b) 24%”.

Turning to `CC1(O)CCC2C3CCC4=CC(=O)CCC4=C3C(c3ccc(C=NO)cc3)CC21C` (stereo not drawn) [Example 2, 4-(17β-Hydroxy-17α-methyl-3-oxoestra-4,9-dien-11β-yl)benzaldehyde-1(E)-oxime], the “AR relative molar binding affinity (RBA) a) against RU 1881” value is “a) 16%” and the “AR relative molar binding affinity (RBA) b) against dihydrotestosterone (DHT)” value is on record as “b) 23%”.

The values above are taken from patent publication US7550451B2, “Progesterone receptor modulators with increased antigonadotropic activity for female birth control and hormone replacement therapy” (Bayer Schering Pharma AG, priority 2002, dated 2009).
